Laboratory results: PubChem BioAssay (NCI)
Values joined by “and” are separate entries in the source; they are usually repeats but may differ in a detail not shown here. Equal entries are not always repeated.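 Growth conditions: 96-well plates. Treatment: test compound, 48 hours, 5 concentrations. Analysis: linear interpolation between bracketing concentrations; unreached endpoints set to highest concentration. The concentration for 50% growth inhibition is given as GI50. TGI is the concentration that stops growth completely.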

Tests used:
Test in all cases: NCI tumour cell line growth inhibition, 48 h
MDA-MB-435 = tested on: MDA-MB-435
SF-539 CNS = tested on: SF-539 CNS
COLO 205 colon = tested on: COLO 205 colon
MCF7 breast = tested on: MCF7 breast
A549 NSCLC = tested on: A549 NSCLC
SW-620 colon = tested on: SW-620 colon
NCI/ADR-RES ovarian = tested on: NCI/ADR-RES ovarian
NCI-H23 lung = tested on: NCI-H23 lung
RPMI-8226 leukemia = tested on: RPMI-8226 leukemia
PC-3 prostate = tested on: PC-3 prostate

Structure (SMILES) | GI50 (MDA-MB-435) | TGI (MDA-MB-435) | GI50 (SF-539 CNS) | TGI (SF-539 CNS) | GI50 (COLO 205 colon) | TGI (COLO 205 colon) | GI50 (MCF7 breast) | TGI (MCF7 breast) | GI50 (A549 NSCLC) | TGI (A549 NSCLC) | GI50 (SW-620 colon) | TGI (SW-620 colon) | GI50 (NCI/ADR-RES ovarian) | TGI (NCI/ADR-RES ovarian) | GI50 (NCI-H23 lung) | TGI (NCI-H23 lung) | GI50 (RPMI-8226 leukemia) | TGI (RPMI-8226 leukemia) | GI50 (PC-3 prostate) | TGI (PC-3 prostate)
O=C(c1c(F)ccc(NS(=O)(=O)N2CC[C@@H](F)C2)c1F)c1c[nH]c2ncc(-c3cnc(C4CC4)nc3)cc12 | 0.0174 µM and 0.0272 µM | > 10 µM and 23.1 µM | 6.74 µM and 6.17 µM | > 10 µM and 23.7 µM | 0.00482 µM and < 0.01 µM | > 7.6 µM and 12.2 µM | > 9.13 µM and 10.1 µM | > 10 µM and 44.5 µM | 5.85 µM and 7.09 µM | > 10 µM and 40.3 µM | > 7.76 µM and 10.9 µM | > 10 µM and 35 µM | > 10 µM and 25.2 µM | > 100 µM | > 10 µM and 10.2 µM | > 10 µM and 41.1 µM | 5.59 µM and 5.45 µM | > 10 µM and 42.2 µM | 7.03 µM and 6.82 µM | > 10 µM and 70 µM
CCCCCCNC(=O)c1nc(-c2ccccc2)oc1Cc1ccc(OP(=O)(O)O)cc1 | 16.4 µM | 30.5 µM | 16.9 µM | 32.2 µM | 17 µM | 31.2 µM | 15.3 µM | 29.9 µM | 18 µM | 36 µM | 16.8 µM | 33.4 µM | 20.3 µM | 42 µM | 16.7 µM | 35.4 µM | 20.4 µM | 49 µM | 17.9 µM | 34.5 µM
NS(=O)(=O)c1ccc(N(/C=C/C(=O)C(F)(F)F)CC(=O)c2ccc(Cl)cc2)cc1 | > 100 µM | > 100 µM | 43.4 µM | > 100 µM | 32.2 µM | > 100 µM | 15.8 µM | 49.7 µM | 49.7 µM | > 100 µM | 57 µM | > 100 µM | 47.6 µM | > 100 µM | 37.5 µM | > 100 µM | 20.2 µM | 53.6 µM | 26.4 µM | 84.1 µM
Nc1c(C(=O)Nc2cccc(Br)c2)sc2nc3c(cc12)C(=O)CCC3 | 0.0915 µM | 0.348 µM | 0.448 µM | > 100 µM | 0.401 µM | – | 0.373 µM | > 100 µM | 0.5 µM | > 100 µM | 0.426 µM | > 100 µM | 0.475 µM | > 100 µM | 0.583 µM | > 100 µM | > 49.9 µM | > 100 µM | 0.457 µM | > 100 µM
C=CCc1cccc(/C=N/NC(=O)CN2CCN(Cc3ccccc3)CC2)c1O | 2.86 µM | 13.3 µM | 2.32 µM | 9.49 µM | 2.22 µM | 13.9 µM | 2.52 µM | 12.5 µM | 3.34 µM | 16.4 µM | 3.8 µM | 17.1 µM | 0.92 µM | 11.9 µM | 3.05 µM | 16.5 µM | 1.47 µM | 12.7 µM | 3.45 µM | 16.1 µM
CCOC(=O)C(=Cc1cccc(Cl)c1)C(=O)OCC | 2.07 µM | 5.04 µM | 1.66 µM | 3.14 µM | 2.21 µM | 4.42 µM | 2.12 µM | 8.11 µM | 11.4 µM | 24.6 µM | 2.03 µM | 4.1 µM | 3.3 µM | 16.9 µM | 2.32 µM | 6.45 µM | 2.1 µM | 5.32 µM | 2.05 µM | 4.21 µM
Cn1cnc([N+](=O)[O-])c1S(=O)(=O)Oc1ccccc1 | 9.84 µM | 31.9 µM | 14 µM | 29.8 µM | 1.68 µM | 3.29 µM | 7.82 µM | > 44.3 µM | 38.1 µM | > 100 µM | 1.92 µM | 4.34 µM | 21.7 µM | > 65.8 µM | 15 µM | 37.9 µM | 4.69 µM | 17.6 µM | 20.6 µM | 62 µM
Cc1nc2ccccc2nc1-c1ccc(N=[N+]([O-])c2ccc(-c3nc4ccccc4nc3C)cc2)cc1 | – | > 100 µM | – | > 100 µM | – | > 100 µM | – | > 100 µM | – | > 100 µM | – | > 100 µM | – | > 100 µM | – | > 100 µM | – | > 100 µM | – | > 100 µM
CCN1CCN=c2c3cc(OC)ccc3n3cnc4ccc1c2c43 | – | 1.31 µM | – | 0.413 µM | – | 0.606 µM | – | 0.993 µM | – | 0.67 µM | – | 2.08 µM | – | 0.489 µM | – | 0.985 µM | – | 0.558 µM | – | 0.8 µM
COc1cc(-c2nn(-c3cccc(NC(=O)Nc4ccc(Cl)c(Cl)c4)c3)cc2-c2ccncc2)ccc1Cl | 0.938 µM | 2.39 µM | 0.965 µM | 3.08 µM | 0.937 µM | 1.72 µM | 0.945 µM | > 50 µM | 0.745 µM | > 50 µM | 1.59 µM | > 50 µM | 0.99 µM | 4.67 µM | 1.41 µM | 5.19 µM | 0.388 µM | 3.26 µM | 0.554 µM | 2.83 µM
Cc1nc2cnc(N)c(C#Cc3cncc(C(=O)Nc4ccc(CN5CCN(C)CC5)c(C(F)(F)F)c4)c3)c2nc1C | 0.14 µM | 6 µM | 0.313 µM | 3.69 µM | 0.0558 µM | 0.634 µM | 0.161 µM | 4.04 µM | 0.614 µM | 5.71 µM | 0.279 µM | 3.21 µM | 7.56 µM | 23.8 µM | 0.342 µM | 8.67 µM | 1.65 µM | 8.51 µM | 1.48 µM | 17.4 µM
N=c1ccn2c(n1)OC1C(O)C(CO)OC12 (centres undefined) | 2.59 µM | > 1000 µM | 31.9 µM | > 1000 µM | 2.28 µM | > 1000 µM | 0.0703 µM | 361 µM and > 100 µM | 0.337 µM | > 1000 µM | 5.76 µM and 1.28 µM | > 1000 µM | 0.659 µM | > 753 µM | 0.345 µM | 161 µM and > 100 µM | 3.97 µM | > 1000 µM | > 100 µM | > 1000 µM
O=C(c1ccc(F)c(F)c1Nc1ccc(I)cc1F)N1CC(O)([C@@H]2CCCCN2)C1 | < 0.01 µM and 0.00943 µM | 15.1 µM and > 10 µM | 3.22 µM and > 9.01 µM | 18.5 µM and > 10 µM | < 0.01 µM and 0.00238 µM | 4.06 µM | 6.56 µM and > 10 µM | 20.1 µM and > 10 µM | 0.25 µM and 0.48 µM | 17 µM and > 10 µM | < 0.0215 µM and 0.0563 µM | 14.4 µM and > 10 µM | 6.56 µM and > 7.36 µM | 21.5 µM and > 10 µM | < 0.0436 µM and 0.129 µM | 10 µM and > 10 µM | 0.992 µM and 3.1 µM | 18.2 µM and > 10 µM | 5.57 µM and > 9.27 µM | 18.8 µM and > 10 µM
